Structures can show the parent of a compound that is named as a salt.
Tests used:
Chk1 [1] = molecular target: T1, Chk1 (Homo sapiens, UniProt O14757); assay: Chk1 biochemical assay (CHK1/substrate peptide filter binding); settings: 60 μM ATP, 0.75 nM Chk1 enzyme
T1 sequence (O14757 1-476): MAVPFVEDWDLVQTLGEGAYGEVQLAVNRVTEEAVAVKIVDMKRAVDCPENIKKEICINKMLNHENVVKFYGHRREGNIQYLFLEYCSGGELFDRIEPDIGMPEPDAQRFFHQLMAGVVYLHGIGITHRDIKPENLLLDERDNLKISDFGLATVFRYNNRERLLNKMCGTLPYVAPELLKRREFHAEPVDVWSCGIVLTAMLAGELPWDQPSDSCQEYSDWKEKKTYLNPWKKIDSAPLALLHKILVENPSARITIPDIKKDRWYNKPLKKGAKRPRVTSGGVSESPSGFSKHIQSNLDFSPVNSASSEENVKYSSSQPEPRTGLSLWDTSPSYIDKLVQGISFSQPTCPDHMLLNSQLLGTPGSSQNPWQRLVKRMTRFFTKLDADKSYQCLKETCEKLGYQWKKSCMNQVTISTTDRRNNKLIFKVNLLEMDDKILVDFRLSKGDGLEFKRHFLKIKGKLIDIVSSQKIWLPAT
Experimental: The effect of compounds on Chk1 biochemical activity can be determined using a CHK1/substrate peptide filter binding assay. In this assay, a synthetic peptide based on the amino acid sequence residues 206-225 of Cdc25, is used as a phospho-acceptor substrate for recombinant Chk1 protein kinase. Using γ-^33P-ATP as the phospho-donor substrate, Chk1 transfers the radioactive γ-^33phosphate group to the synthetic peptide. The reaction is measured by capturing the peptide substrate on a cation exchange paper filter plate and scintillation counting of emitted beta particles.
The kinase reactions (40 μL reaction volumes) are performed in 96-well V-bottom polystyrene plates. Reactions are initiated with the addition of Chk1 enzyme. […]
Following Chk1 enzyme addition, the reactions are incubated at room temperature for 90 min, and then terminated with the addition of 140 μL of phosphoric acid. […] After sitting for 4 h at room temperature, the radioactivity in the plate is measured using a MicroBeta Trilux microplate scintillation counter (Perkin Elmer).
For IC50 determination, the percent inhibition for each concentration is calculated using the scintillation count ratio from controls run on each plate. […] Absolute IC50 values are calculated from the resulting curve. […]

Chk1 [2] = molecular target: T1, Chk1; assay: Chk1 in vivo target inhibition assay (Calu-6 xenograft, phospho-Chk1 ser296); design: from tissue; host or cells: Calu-6 xenograft tumour from nude mice; species or system nude mice; settings: Calu-6 tumors, oral, 6 h after gemcitabine 150 mg/kg ip, 2 h post dose
Experimental: Calu-6 cells are cultured in growth media (MEM with Earle's Balanced Salt Solution with L-glutamine supplemented with […], 1×MEM non-essential amino acids, 1× sodium pyruvate) and expanded. Cells are harvested and washed twice with phosphate buffered saline and 1×10^6 cells in growth media (without serum) are mixed with equal volume of BD Matrigel™ matrix, then injected subcutaneously into the flank of pre-irradiated (4.5 Gy) nude mice (athymic nude). At day 15 after implant (tumor size=150-200 mm^3), gemcitabine formulated fresh in saline daily is administered to animals by intraperitoneal route at 150 mg/kg dose. […] Antigen-antibody-reporter conjugates immobilized on the membrane are detected with the Super Signal Western Femto HRP-detection reagent.
Signals are detected and captured using the FUJI LAS-4000 imaging system. Phospho-Chk1(ser296) band intensities are calculated using “Total Lab” software (Nonlinear Dynamics). The percent inhibition of the gemcitabine induced Chk1 autophosphorylation is calculated by using the following formula: % inhibition=(sample-phospho-Chk1 band—intensity average gemcitabine (Max) positive control-phospho-Chk1 band intensity)/(average negative control (Min)-phosphor-Chk1 band intensity—average gemcitabine (Max) positive control-phospho-Chk1 band intensity)×100.

Compound: COc1nc(C)ccc1-c1cc(Nc2cncc(O[C@@H]3CCCNC3)n2)[nH]n1 [Example 1, (R)-[5-(2-Methoxy-6-methyl-pyridin-3-yl)-2H-pyrazol-3-yl]-[6-(piperidin-3-yloxy)-pyrazin-2-yl]-amine]
- IC50 (Chk1 [1]): < 1 nM

Compound: COc1nc(C)ccc1-c1cc(Nc2cncc(O[C@@H]3CCCNC3)n2)[nH]n1 [Example 3, (R)-[5-(2-Methoxy-6-methyl-pyridin-3-yl)-2H-pyrazol-3-yl]-[6-(piperidin-3-yloxy)-pyrazin-2-yl]-amine acetic acid salt]
- Target Modulatory Effective Dose 50 (TMED50) for Chk1 autophosphorylation (Chk1 [2]): 1.3 mg/kg

Reference: US9067920B2, “Compounds useful for inhibiting Chk1” (Eli Lilly and Company, priority 2010, dated 2015)
